ChEMBL document CHEMBL3098040, “Design and Discovery of 2-Arylquinazolin-4-ones as Potent and Selective Inhibitors of Tankyrases” (ACS Med Chem Lett, 2013)
pIC50: −log10 of the molar value.

Columns and labels:
[1] = molecular target: Inosine-5'-monophosphate dehydrogenase 2 (Homo sapiens, UniProt P12268); experiment: Inhibition of human recombinant IMPDH2 by spectrophotometry
[2] = molecular target: T1, Poly [ADP-ribose] polymerase tankyrase-2 (Homo sapiens, UniProt Q9H2K2); experiment: Inhibition of human tankyrase2 after 2 hrs by spectrophotometry
T1 sequence (Q9H2K2 whole entry): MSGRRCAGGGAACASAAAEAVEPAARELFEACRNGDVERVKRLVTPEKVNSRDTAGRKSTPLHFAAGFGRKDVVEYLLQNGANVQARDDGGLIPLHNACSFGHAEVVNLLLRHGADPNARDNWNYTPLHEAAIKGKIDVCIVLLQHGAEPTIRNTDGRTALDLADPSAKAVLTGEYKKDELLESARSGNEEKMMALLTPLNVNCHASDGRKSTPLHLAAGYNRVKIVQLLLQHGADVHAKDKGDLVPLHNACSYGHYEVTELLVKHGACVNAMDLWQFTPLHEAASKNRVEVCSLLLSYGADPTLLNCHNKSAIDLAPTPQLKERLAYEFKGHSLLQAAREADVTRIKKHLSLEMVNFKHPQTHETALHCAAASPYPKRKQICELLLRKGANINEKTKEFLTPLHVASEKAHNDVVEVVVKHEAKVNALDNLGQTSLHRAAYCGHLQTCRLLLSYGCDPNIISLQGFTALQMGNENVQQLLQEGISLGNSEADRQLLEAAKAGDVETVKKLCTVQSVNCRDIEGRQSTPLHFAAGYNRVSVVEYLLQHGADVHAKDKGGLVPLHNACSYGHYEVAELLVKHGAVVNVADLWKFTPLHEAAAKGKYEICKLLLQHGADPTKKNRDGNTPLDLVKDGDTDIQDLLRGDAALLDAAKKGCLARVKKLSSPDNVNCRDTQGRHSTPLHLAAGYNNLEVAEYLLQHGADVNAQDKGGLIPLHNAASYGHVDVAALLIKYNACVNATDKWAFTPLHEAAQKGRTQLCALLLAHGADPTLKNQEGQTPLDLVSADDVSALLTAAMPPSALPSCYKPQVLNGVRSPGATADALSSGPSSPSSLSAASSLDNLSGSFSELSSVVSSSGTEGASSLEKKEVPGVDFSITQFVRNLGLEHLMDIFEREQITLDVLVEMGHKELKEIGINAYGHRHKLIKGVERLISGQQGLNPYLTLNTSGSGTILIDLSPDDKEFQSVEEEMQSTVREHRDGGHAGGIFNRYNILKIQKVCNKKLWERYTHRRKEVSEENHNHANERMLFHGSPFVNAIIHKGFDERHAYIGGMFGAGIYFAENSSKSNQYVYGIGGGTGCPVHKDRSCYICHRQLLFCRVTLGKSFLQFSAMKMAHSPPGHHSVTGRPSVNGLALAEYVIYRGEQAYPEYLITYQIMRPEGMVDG

[3] = molecular target: T2, Poly [ADP-ribose] polymerase tankyrase-1 (Homo sapiens, UniProt O95271); experiment: Inhibition of human tankyrase1 after 30 mins by spectrophotometry
T2 sequence (O95271 whole entry): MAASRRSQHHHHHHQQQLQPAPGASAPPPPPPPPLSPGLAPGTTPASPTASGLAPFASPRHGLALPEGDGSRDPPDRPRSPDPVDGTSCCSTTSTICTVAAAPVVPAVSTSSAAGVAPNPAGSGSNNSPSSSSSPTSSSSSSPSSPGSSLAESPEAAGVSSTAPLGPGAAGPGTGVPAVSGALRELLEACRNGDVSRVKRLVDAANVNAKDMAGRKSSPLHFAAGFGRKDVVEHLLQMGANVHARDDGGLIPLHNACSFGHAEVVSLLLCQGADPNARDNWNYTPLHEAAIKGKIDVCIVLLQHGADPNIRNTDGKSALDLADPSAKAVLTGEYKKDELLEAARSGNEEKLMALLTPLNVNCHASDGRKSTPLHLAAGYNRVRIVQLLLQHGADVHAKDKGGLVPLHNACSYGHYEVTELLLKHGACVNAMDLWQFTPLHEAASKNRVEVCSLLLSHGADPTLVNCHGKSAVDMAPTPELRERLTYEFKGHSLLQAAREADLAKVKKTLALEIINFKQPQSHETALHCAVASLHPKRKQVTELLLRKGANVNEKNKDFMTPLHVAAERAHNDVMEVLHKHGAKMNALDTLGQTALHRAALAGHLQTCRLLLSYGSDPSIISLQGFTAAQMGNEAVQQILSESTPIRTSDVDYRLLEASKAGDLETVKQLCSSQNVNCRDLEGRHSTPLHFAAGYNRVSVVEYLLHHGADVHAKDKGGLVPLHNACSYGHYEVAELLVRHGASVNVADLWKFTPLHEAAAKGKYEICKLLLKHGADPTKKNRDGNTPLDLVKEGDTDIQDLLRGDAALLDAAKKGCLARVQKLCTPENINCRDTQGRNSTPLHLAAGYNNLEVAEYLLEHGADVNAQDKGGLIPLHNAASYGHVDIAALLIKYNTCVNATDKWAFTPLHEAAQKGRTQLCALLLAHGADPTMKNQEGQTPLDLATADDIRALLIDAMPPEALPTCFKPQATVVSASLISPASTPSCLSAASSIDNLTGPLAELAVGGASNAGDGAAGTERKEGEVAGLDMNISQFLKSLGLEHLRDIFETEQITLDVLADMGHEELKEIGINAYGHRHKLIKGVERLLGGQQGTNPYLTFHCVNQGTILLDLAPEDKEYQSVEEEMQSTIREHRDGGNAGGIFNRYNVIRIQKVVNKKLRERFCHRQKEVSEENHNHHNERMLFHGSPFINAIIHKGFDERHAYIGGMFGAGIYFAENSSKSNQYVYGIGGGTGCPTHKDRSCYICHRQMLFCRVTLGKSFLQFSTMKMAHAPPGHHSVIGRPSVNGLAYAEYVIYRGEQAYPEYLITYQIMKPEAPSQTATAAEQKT

[4] = molecular target: Poly [ADP-ribose] polymerase 1 (Homo sapiens, UniProt P09874); experiment: Inhibition of PARP1 (unknown origin) after 1 hr by spectrophotometry
[5] = molecular target: T3, Poly [ADP-ribose] polymerase tankyrase-2 (Homo sapiens) (UniProt Q9H2K2); experiment: Inhibition of human tankyrase2 at 10 nM after 2 hrs by spectrophotometry
T3 sequence (whole entry): T1 sequence (Q9H2K2 whole entry)

Homo sapiens [6] = organism: Homo sapiens; experiment: Selectivity ratio of IC50 for PARP1 (unknown origin) to IC50 for human tankyrase2
Homo sapiens [7] = organism: Homo sapiens; experiment: Selectivity ratio of IC50 for PARP1 (unknown origin) to IC50 for human tankyrase1

Chain of Poly [ADP-ribose] polymerase 1 (P09874 whole entry): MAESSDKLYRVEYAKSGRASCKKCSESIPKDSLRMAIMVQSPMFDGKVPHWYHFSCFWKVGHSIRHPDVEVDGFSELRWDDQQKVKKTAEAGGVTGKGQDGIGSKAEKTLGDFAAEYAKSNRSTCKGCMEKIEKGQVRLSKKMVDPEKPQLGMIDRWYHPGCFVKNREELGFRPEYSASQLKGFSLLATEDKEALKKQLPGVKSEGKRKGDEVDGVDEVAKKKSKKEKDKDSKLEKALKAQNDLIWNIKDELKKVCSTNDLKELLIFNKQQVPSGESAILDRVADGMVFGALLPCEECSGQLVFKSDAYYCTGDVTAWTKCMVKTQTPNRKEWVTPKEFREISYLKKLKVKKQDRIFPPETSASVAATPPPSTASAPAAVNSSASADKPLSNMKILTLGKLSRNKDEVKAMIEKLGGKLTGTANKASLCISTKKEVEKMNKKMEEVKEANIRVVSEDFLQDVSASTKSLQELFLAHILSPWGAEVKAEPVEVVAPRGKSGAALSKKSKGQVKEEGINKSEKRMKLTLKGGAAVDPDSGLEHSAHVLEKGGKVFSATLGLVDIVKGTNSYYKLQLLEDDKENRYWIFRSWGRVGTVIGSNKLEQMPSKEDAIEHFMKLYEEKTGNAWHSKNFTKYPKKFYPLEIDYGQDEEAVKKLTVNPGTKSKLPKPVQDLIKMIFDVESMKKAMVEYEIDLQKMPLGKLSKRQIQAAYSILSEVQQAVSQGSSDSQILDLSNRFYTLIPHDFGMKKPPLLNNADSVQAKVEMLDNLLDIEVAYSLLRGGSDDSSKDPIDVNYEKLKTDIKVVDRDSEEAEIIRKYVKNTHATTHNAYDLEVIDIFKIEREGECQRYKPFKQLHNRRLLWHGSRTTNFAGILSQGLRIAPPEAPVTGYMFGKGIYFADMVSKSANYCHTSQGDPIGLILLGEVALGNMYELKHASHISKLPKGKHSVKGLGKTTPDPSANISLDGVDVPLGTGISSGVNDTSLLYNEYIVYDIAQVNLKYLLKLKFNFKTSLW

SMILES	pIC50 [1]	pIC50 [2]	pIC50 [3]	pIC50 [4]	inhibition [5] [%]	Ratio IC50 (Homo sapiens [6])	Ratio IC50 (Homo sapiens [7])
Cc1cccc2c(O)nc(-c3ccc([N+](=O)[O-])cc3)nc12	< 5.00	7.52	7.49	–	–	–	–
Oc1nc(-c2ccc(C(F)(F)F)cc2)nc2c1CSCC2	< 5.00	–	–	–	–	–	–
Cc1cccc2c(=O)[nH]c(-c3ccc(F)cc3)nc12	< 5.00	7.40	7.36	< 5.30	–	–	–
Cc1cccc2c(=O)[nH]c(-c3ccc(CNC(=O)OCc4ccccc4)cc3)nc12	< 5.00	7.36	7.14	< 5.30	–	> 110	> 70
Cc1cccc2c(O)nc(-c3ccc(N)cc3)nc12	< 5.00	8.48	7.46	6.30	–	170	14
COc1ccc(-c2nc3c(C)cccc3c(=O)[nH]2)cc1	< 5.00	7.92	7.43	6.05	–	–	–
O=c1[nH]c(-c2ccc([N+](=O)[O-])cc2)nc2ccccc12	–	–	–	–	2	–	–
Cc1cccc2c(O)nc(-c3ccc(O)cc3)nc12	–	–	–	–	–	240	23
Cc1cccc2c(O)nc(-c3ccc(C(F)(F)F)cc3)nc12	< 5.00	8.00	7.32	< 5.30	–	> 500	> 100
Cc1cccc2c(=O)[nH]c(-c3ccccc3)nc12	< 5.00	7.39	7.38	6.10	–	–	–

The remaining lines, values ahead:

pIC50 [1]	pIC50 [2]	pIC50 [3]	pIC50 [4]	inhibition [5] [%]	Ratio IC50 (Homo sapiens [6])	Ratio IC50 (Homo sapiens [7])	SMILES
–	–	–	–	32	–	–	O=c1[nH]c(-c2ccc(Cl)cc2)nc2c(O)cccc12
–	–	–	–	25	–	–	COc1cccc2c(=O)[nH]c(-c3ccc(Cl)cc3)nc12
< 5.00	8.26	7.49	< 5.30	–	> 830	> 150	Cc1cccc2c(=O)[nH]c(-c3ccc(Br)cc3)nc12
< 5.00	7.48	7.44	< 5.30	49	–	–	Cc1cccc2c(=O)[nH]c(-c3ccc(Cl)cc3)nc12
< 5.00	8.52	7.28	5.92	–	–	–	Cc1cccc2c(=O)[nH]c(-c3ccc(O)cc3)nc12
< 5.00	8.17	7.46	6.16	–	–	–	Cc1ccc(-c2nc3c(C)cccc3c(=O)[nH]2)cc1
